Reference: patent US20250049904A1, “IMMUNOSTIMULATORY COMPOSITIONS” (VICTORIA LINK LIMITED, priority 2021, published 2025)

Legend:
[1] = test system: liver TRM cells; assay: LPX-mOVA-CI058 vaccination of NKT cell-deficient mice; liver TRM cells; format: in vivo, TRAJ18-deficient mice; conditions: LPX vaccine with CI058, 28 days after vaccination
Description: Groups (n=3) of C57BL/6 mice or TRAJ18-deficient mice were vaccinated with LPX-mOVA-CI058, or injected with PBS vehicle. The TRAJ18-deficient strain cannot complete the TCR rearrangement required to form the TCR-alpha chain used by type I NKT cells, and therefore are deficient in these cells, while the remaining T cell repertoire is largely intact. No prior transfer of OT-I cells was conducted, so results reflect endogenous T cell responses to vaccination. Mean number of TRM cells in liver 28 days after vaccination for each treatment group (±SEM) are shown; dots represent individual mice. **P<0.01,
C57BL/6 (B6), OT-I^1, and TRAJ18^−/− mice were bred and maintained at the Department of Microbiology and Immunology, The University of Melbourne, or the BRU, Malaghan Institute of Medical Research, New Zealand. […]
Lymphocytes were stained with monoclonal antibodies for: CD8a (53-6.7), Ly5.1 (A20), CD44 (IM7), CXCR6 (SA051D1), CX3CR1 (SA011F11), from BioLegend (Australian Biosearch, Karrinyup, WA. Australia), and CD62L (MEL-14) and CD69 (H1.2F3), from eBioscience (Jomar Life Research, Scoresby, VIC, Australia). […] Single-color positive control samples were used to adjust compensation and cells were analyzed by flow cytometry on a LSR Fortessa (BD Biosciences), or LSRII SORP using Flowjo software (Tree Star Inc.).

[2] = test system: Plasmodium berghei sporozoites; assay: Mouse model of malaria infection: sporozoite challenge after vaccination; format: in vivo
Description: FIG. 3 provides a graphical representation showing that LPX-mRNA vaccines containing CI058 induce functional liver TRM responses that protect from Plasmodium berghei infection. The function of TRM induced with LPX vaccines containing CI058 was tested in a mouse model of malaria infection, which is known to require liver TRM cells to provide protection against infection. Analysis was in C57BL/6 mice with LPX-mOVA versus LPX-mOVA-CI058 vaccines, with prior transfer of OT-I cells to enhance T cell precursor frequency, and challenge was with P. berghei sporozoites from a parasite strain modified to express OVA. (A) Groups of mice (n=12-15) were subject to vaccination only. Percentages of TRM, TEM and TCM OT-I cells in each treatment group determined in liver 30 days later, assessed as in FIG. 1. Black bars: TRM cells; white bars: TEM cells; grey bars: TCM cells. […] (D) Groups of mice were subject to vaccination followed by challenge with 200 OVA-expressing P. berghei sporozoites 30 days later, and parasitemia was measured 6, 7,8, 10 and 12 days after infection. […] Groups of mice (n=12-15) were subject to vaccination, and then percentages of TRM cells, TEM cells and TCM cells in each treatment group were evaluated in liver 30 days later by flow cytometry using MHC/peptide tetramers containing a defined CD8 T cell epitope from RLP6, using gating strategy in FIG. 2. […]

[3] = test system: tissue-resident memory T cells (TRM cells); assay: LPX-mRNA vaccination of mice i.v.; antigen-specific TRM, TEM and TCM cells in liver and spleen by flow cytometry; format: in vivo, C57BL/6 mice

CCCCCCCCCCCCCCCCCCCCCCCCCC(=O)N[C@@H](CO[C@H]1O[C@H](CSCC(=O)Nc2ccc(C3=C4C(C)=CC(C)=[N+]4[B-](F)(F)n4c(C)cc(C)c43)cc2)[C@H](O)[C@H](O)[C@H]1O)[C@H](O)[C@H](O)CCCCCCCCCCCCCC [CI058, (2S,3S,4R)-1-(6-Deoxy-6-((2-((4-(5,5-difluoro-1,3,7,9-tetramethyl-5H-4λ4,5λ4-dipyrrolo[1,2-c:2′,1′-f][1,3,2]diazaborinin-10-yl)phenyl)amino)-2-oxoethyl)thio)-α-D-galactopyranosyloxy)-2-hexacosanoylamino-3,4-octadecandiol]
liver TRM cell accumulation in NKT cell-deficient mice [1]: no liver TRM cell accumulation is induced
protection against sporozoite challenge ([2]; 200 OVA-expressing P. berghei sporozoites 30 days after LPX-mOVA vaccination, OT-I transfer): provide protection against challenge with P. berghei sporozoites
blood parasitemia ([2]; after challenge with OVA-expressing P. berghei sporozoites): significantly limit blood parasitemia
overall TRM cell accumulation in the liver ([3]; agonist in LPX-mOVA vaccine, OT-I transfer, liver 30 days later): significantly better at inducing accumulation of TRM cells
proportion of liver TRM among all vaccine-induced antigen-specific T cells (TRM cell-inducing capability) ([3]; agonist in LPX-mOVA vaccine, OT-I transfer, liver 30 days later, relative to α-GalCer vaccine): superior liver TRM cell-inducing agonist
proportion of antigen-specific TRM cells, liver vs spleen ([3]; malaria model vaccination, LPX-mOVA with CI058, 30 days): significant changes in proportion of antigen-specific TRM cells, which is more pronounced in liver compared to spleen
